System: 598228-144-R-J1-PDC complex spheroids, viability
Experiment: Anticancer human tumor 598228-144-R-J1-PDC patient-derived serous endometrial adenocarcinoma cell line growth inhibition [CLK]
Details: for IC50: curve of first compound; for viability, T/C: stronger effect = lower value
Method in brief: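 Multi-cell-type spheroids combined patient-derived tumor cells with HUVEC endothelial cells and human mesenchymal stem cells. Paired agents were dosed in half-log steps down from about clinical Cmax, or from 10 microM where Cmax was unknown.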

[1] = second compound 0.0316 µM, first compound 0.0316 µM
[2] = second compound 0.0316 µM, first compound 0.1 µM
[3] = second compound 0.0316 µM, first compound 0.316 µM
[4] = second compound 0.0316 µM, first compound 1 µM
[5] = second compound 0.0316 µM, first compound 3.16 µM
[6] = second compound 0.0316 µM, first compound 10 µM
[7] = second compound 0.1 µM, first compound 0.0316 µM
[8] = second compound 0.1 µM, first compound 0.1 µM
[9] = second compound 0.1 µM, first compound 0.316 µM
[10] = second compound 0.1 µM, first compound 1 µM
[11] = second compound 0.1 µM, first compound 3.16 µM
[12] = second compound 0.1 µM, first compound 10 µM
[13] = second compound 0.316 µM, first compound 0.0316 µM
[14] = second compound 0.316 µM, first compound 0.1 µM
[15] = second compound 0.316 µM, first compound 0.316 µM
[16] = second compound 0.316 µM, first compound 1 µM
[17] = second compound 0.316 µM, first compound 3.16 µM
[18] = second compound 0.316 µM, first compound 10 µM
[19] = second compound 1 µM, first compound 0.0316 µM
[20] = second compound 1 µM, first compound 0.1 µM
[21] = second compound 1 µM, first compound 0.316 µM
[22] = second compound 1 µM, first compound 1 µM
[23] = second compound 1 µM, first compound 3.16 µM
[24] = second compound 1 µM, first compound 10 µM
[25] = second compound 3.16 µM, first compound 0.0316 µM
[26] = second compound 3.16 µM, first compound 0.1 µM
[27] = second compound 3.16 µM, first compound 0.316 µM
[28] = second compound 3.16 µM, first compound 1 µM
[29] = second compound 3.16 µM, first compound 3.16 µM
[30] = second compound 3.16 µM, first compound 10 µM
[31] = second compound 10 µM, first compound 0.0316 µM
[32] = second compound 10 µM, first compound 0.1 µM
[33] = second compound 10 µM, first compound 0.316 µM
[34] = second compound 10 µM, first compound 1 µM
[35] = second compound 10 µM, first compound 3.16 µM
[36] = second compound 10 µM, first compound 10 µM
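Note: spheroids exposed to compounds for seven days before readout.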
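Throughout, for viability, T/C: 100% = DMSO vehicle control wells.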

**Q.** For CC1COCCN1c1cc(C2(S(C)(=N)=O)CC2)nc(-c2ccnc3[nH]ccc23)n1 (centres undefined) + CNC(=O)c1ccc(Nc2nc(OC3CCCC3)c3c(-c4ccc5nc(C)oc5c4)c[nH]c3n2)c(OC)c1, which IC50 (second compound 0.0316 µM) is on record?
**A.** 9.48 µM

**Q.** What about the IC50 (second compound 0.1 µM) of the same compound?
**A.** > 10 µM

**Q.** What about the IC50 (second compound 0.316 µM) of the same compound?
**A.** > 10 µM

**Q.** What about the IC50 (second compound 1 µM) of the same compound?
**A.** 6.79 µM

**Q.** And the IC50 (second compound 3.16 µM)?
**A.** 3.3 µM

**Q.** What about the IC50 (second compound 10 µM) of the same compound?
**A.** 2.53 µM

**Q.** And the viability, T/C [1]?
**A.** 101%

**Q.** And the viability, T/C [2]?
**A.** 107%

**Q.** What about the viability, T/C [3] of the same compound?
**A.** 100%

**Q.** What about the viability, T/C [4] of the same compound?
**A.** 97.3%

**Q.** What about the viability, T/C [5] of the same compound?
**A.** 73.3%

**Q.** And the viability, T/C [6]?
**A.** 48.9%

**Q.** And the viability, T/C [7]?
**A.** 105%

**Q.** And the viability, T/C [8]?
**A.** 107%

**Q.** And the viability, T/C [9]?
**A.** 115%

**Q.** What about the viability, T/C [10] of the same compound?
**A.** 104%

**Q.** What about the viability, T/C [11] of the same compound?
**A.** 68.5%

**Q.** And the viability, T/C [12]?
**A.** 57.5%

**Q.** And the viability, T/C [13]?
**A.** 100%

**Q.** And the viability, T/C [14]?
**A.** 91.3%

**Q.** And the viability, T/C [15]?
**A.** 112%

**Q.** And the viability, T/C [16]?
**A.** 89%

**Q.** And the viability, T/C [17]?
**A.** 76.2%

**Q.** And the viability, T/C [18]?
**A.** 59.7%

**Q.** And the viability, T/C [19]?
**A.** 110%

**Q.** What about the viability, T/C [20] of the same compound?
**A.** 103%

**Q.** And the viability, T/C [21]?
**A.** 90.7%

**Q.** And the viability, T/C [22]?
**A.** 78.7%

**Q.** And the viability, T/C [23]?
**A.** 69.1%

**Q.** And the viability, T/C [24]?
**A.** 41.1%

**Q.** And the viability, T/C [25]?
**A.** 89.3%

**Q.** And the viability, T/C [26]?
**A.** 90.9%

**Q.** And the viability, T/C [27]?
**A.** 80.4%

**Q.** What about the viability, T/C [28] of the same compound?
**A.** 72.8%

**Q.** What about the viability, T/C [29] of the same compound?
**A.** 50.6%

**Q.** And the viability, T/C [30]?
**A.** 24.6%

**Q.** What about the viability, T/C [31] of the same compound?
**A.** 79.6%

**Q.** What about the viability, T/C [32] of the same compound?
**A.** 77.5%

**Q.** And the viability, T/C [33]?
**A.** 85.6%

**Q.** And the viability, T/C [34]?
**A.** 64.6%

**Q.** And the viability, T/C [35]?
**A.** 46.9%

**Q.** And the viability, T/C [36]?
**A.** 20.6%

**Q.** How did the IC50 (second compound 0.0316 µM) turn out when O=C(c1cc(Cc2n[nH]c(=O)c3ccccc23)ccc1F)N1CCN(C(=O)C2CC2)CC1 + CNC(=O)c1ccc(Nc2nc(OC3CCCC3)c3c(-c4ccc5nc(C)oc5c4)c[nH]c3n2)c(OC)c1 was run?
**A.** > 10 µM

**Q.** What about the IC50 (second compound 0.1 µM) of the same compound?
**A.** > 10 µM

**Q.** What about the IC50 (second compound 0.316 µM) of the same compound?
**A.** > 10 µM

**Q.** What about the IC50 (second compound 1 µM) of the same compound?
**A.** > 10 µM

**Q.** And the IC50 (second compound 3.16 µM)?
**A.** > 10 µM

**Q.** And the IC50 (second compound 10 µM)?
**A.** > 10 µM

**Q.** And the viability, T/C [1]?
**A.** 112%

**Q.** And the viability, T/C [2]?
**A.** 125%

**Q.** What about the viability, T/C [3] of the same compound?
**A.** 115%

**Q.** What about the viability, T/C [4] of the same compound?
**A.** 129%

**Q.** And the viability, T/C [5]?
**A.** 124%

**Q.** What about the viability, T/C [6] of the same compound?
**A.** 113%

**Q.** What about the viability, T/C [7] of the same compound?
**A.** 129%

**Q.** What about the viability, T/C [8] of the same compound?
**A.** 127%

**Q.** And the viability, T/C [9]?
**A.** 106%

**Q.** And the viability, T/C [10]?
**A.** 129%

**Q.** What about the viability, T/C [11] of the same compound?
**A.** 127%

**Q.** And the viability, T/C [12]?
**A.** 105%

**Q.** What about the viability, T/C [13] of the same compound?
**A.** 112%

**Q.** What about the viability, T/C [14] of the same compound?
**A.** 130%

**Q.** What about the viability, T/C [15] of the same compound?
**A.** 111%

**Q.** And the viability, T/C [16]?
**A.** 118%

**Q.** What about the viability, T/C [17] of the same compound?
**A.** 117%

**Q.** What about the viability, T/C [18] of the same compound?
**A.** 113%

**Q.** And the viability, T/C [19]?
**A.** 121%

**Q.** What about the viability, T/C [20] of the same compound?
**A.** 101%

**Q.** What about the viability, T/C [21] of the same compound?
**A.** 99%

**Q.** What about the viability, T/C [22] of the same compound?
**A.** 115%

**Q.** And the viability, T/C [23]?
**A.** 123%

**Q.** And the viability, T/C [24]?
**A.** 94%

**Q.** And the viability, T/C [25]?
**A.** 114%

**Q.** What about the viability, T/C [26] of the same compound?
**A.** 102%

**Q.** And the viability, T/C [27]?
**A.** 108%

**Q.** What about the viability, T/C [28] of the same compound?
**A.** 97.6%

**Q.** What about the viability, T/C [29] of the same compound?
**A.** 106%

**Q.** What about the viability, T/C [30] of the same compound?
**A.** 117%

**Q.** And the viability, T/C [31]?
**A.** 98.5%

**Q.** What about the viability, T/C [32] of the same compound?
**A.** 97.8%

**Q.** And the viability, T/C [33]?
**A.** 92.6%

**Q.** And the viability, T/C [34]?
**A.** 121%

**Q.** What about the viability, T/C [35] of the same compound?
**A.** 109%

**Q.** What about the viability, T/C [36] of the same compound?
**A.** 104%
